Broadly, the IC50 is the concentration that gives 50% inhibition.

Like-named read-outs stand apart in the source and are kept apart here.

Experiment [1] concerns MDA-MB-468 cells. Kind of experiment: Anchorage-dependent proliferation, MTT assay, MDA-MB-468. Conditions: Homo sapiens, 48 h; for IC50: MDA-MB-468, MTT. Type of experiment: cell-based. The protocol: (§1) Cells were cultured in 96 well plates at a density of 2,000 cells/ well. The cells with siRNA transfection or with the inhibitor treatment were monitored for viability using MTT at indicated time points. At the given time points, MTT reagent was added to the media and allowed to incubate for 3 h at 37° C in a humidified incubator at 5% CO2. The medium was then removed and MTT crystals were dissolved in DMSO (Sigma). Cell viability was quantified by reading the plates at an absorbance of 540 nm on a μQuant microplate reader using KC4 data analysis software (Bio-Tek Instruments). The 540 nm absorbance of vehicle-treated wells was used to define 100% proliferation. Each condition was performed in replicates of six wells.
A general note: Tetrazolium dyes change colour on reduction, which living cells bring about.

Another experiment deals with HT29 cells. Put plainly: Anchorage-dependent proliferation, MTT assay, HT29. Conditions: Homo sapiens; for IC50: HT29, MTT. Type of experiment: cell-based. The protocol: as §1
Experiment [2] deals with MDA-MB-468 cells. Kind of experiment: Soft agar anchorage-independent growth, MDA-MB-468. It is filed as cell-based, human. Conditions: for soft agar colonies: vehicle 131. The protocol: For analysis of anchorage-independent growth, log-phase growing cells were trypsinized, and triplicates of 1.5 × 10^3 cells per well were seeded in regular growth medium containing 0.3% agar (Sigma) and drug added at the indicated concentrations, as previously described. The cells were allowed to incubate at 37° C for 3 weeks and fed once per week with the inhibitor before 1 mg/ml MTT (Sigma) solution was added overnight to facilitate colony counting. Colonies were scored and counted according to size, as previously described.

Experiment [3] relates to HT-29 cells. Kind of experiment: Soft agar anchorage-independent growth, HT-29. It is filed as cell-based, human. Conditions: for soft agar colonies: vehicle 129. The protocol: The cells were allowed to incubate at 37° C for 3 weeks and fed once per week with the inhibitor before 1 mg/ml MTT (Sigma) solution was added overnight to facilitate colony counting. Colonies were scored and counted according to size, as previously described.

Experiment [4] has as its system MDA-MB-468 cells. Kind of experiment: Matrigel Transwell invasion, MDA-MB-468. Type of experiment: cell-based, human. Conditions: for invaded cells: vehicle 344. On the procedure:
Cells were transfected with Aurora A and JAK2 for 48 h or with siRNA for 72 h or treated with the compounds for 24 h and then were trypsinized and resuspended in serum-free medium and placed in the upper chamber of the Matrigel-coated (0.8 μg/μL, BD Biosciences, San Diego, CA) Transwell insert (from 2 to 5 × 10^4 cells/well) and with 0.5% DMSO or the compounds at the indicated dose. Medium containing 10%FBS was placed in the lower chamber. […] Invading cells in the membrane were fixed with 100% methanol and stained with fresh prepared 0.2% crystal violet. Noninvasive cells in the upper chamber were removed by wiping the upper side of the membrane with a cotton swab, and cells located on the underside of the filter were observed and photographed under Olympus stereo microscope. The number of invading cells was counted using Image-Pro analysis software.

Experiment [5] has as its system HT-29 cells. Kind of experiment: Matrigel Transwell invasion, HT-29. It is filed as cell-based, human. The conditions noted are these: for invaded cells: vehicle 1066. The source says:
Medium containing 10%FBS was placed in the lower chamber. […] Invading cells in the membrane were fixed with 100% methanol and stained with fresh prepared 0.2% crystal violet. Noninvasive cells in the upper chamber were removed by wiping the upper side of the membrane with a cotton swab, and cells located on the underside of the filter were observed and photographed under Olympus stereo microscope. The number of invading cells was counted using Image-Pro analysis software.

In experiment [6] the test system is Aurora A auto-phosphorylation (Thr-288). Put plainly: Western blot, Aurora A auto-phosphorylation in nocodazole-synchronized MDA-MB-468 cells. Type of experiment: cell-based, human. The conditions noted are these: MDA-MB-468, nocodazole-synchronized, 2 h. On the procedure: (§2) Cells were plated in 6 cm dishes at a density of 2 × 10^5 cells/dish. Aurora A activity was determined by measuring autophosphorylation of Aurora A on Thr288 in cells that were synchronized by treatment with nocodazole (100 ng/mL) for 20 h prior to the treatment with Aurora inhibitors, whereas Aurora B activity was determined by measuring phosphorylation of histone H3 on Ser-10 (p-HH3). […] Cells were harvested after 2 h of treatment and processed for SDS−PAGE and Western blotting.
(§3) Cells were harvested from experiments of ectopic expression or knockdown using siRNA or the treatment with the inhibitors, washed, and then lysed using lysis buffer as previously described. The protein concentration of the lysate was measured, and the lysate was mixed with gel electrophoresis loading buffer, boiled for 5 minutes, separated by SDS-PAGE, and transferred to nitrocellulose membranes.

The subject of experiment [7] is P-Histone H3 (Ser-10), Aurora B substrate. Kind of experiment: Western blot, phosphorylation of Histone H3 in MDA-MB-468 cells. Type of experiment: cell-based, human. The protocol:
as §2, §3
Background: A western blot detects proteins with antibodies after separation by electrophoresis.

Experiment [8] concerns P-STAT3 (Y705), JAK2 substrate. Put plainly: Western blot, phosphorylation of STAT3 in MDA-MB-468 cells. Type of experiment: cell-based, human. On the procedure: as §2, §3
For a further experiment, the system named is P-Histone H3. Kind of experiment: Western blot, phosphorylation of Histone H3 in HT-29 cells. It is filed as cell-based, human. On the procedure:
as §2, §3

Another experiment has as its system P-STAT3. Kind of experiment: Western blot, phosphorylation of STAT3 in HT-29 cells. Type of experiment: cell-based, human. On the procedure: as §2, §3
For experiment [9], the system named is PARP cleavage and Caspase 3 activation in MDA-MB-468 cells. Put plainly: Apoptosis by Western blot of PARP cleavage and Caspase 3 activation, MDA-MB-468. It is filed as cell-based, human. The conditions noted are these: MDA-MB-468, single agent, low concentration. The protocol: Cells were harvested from experiments of ectopic expression or knockdown using siRNA or the treatment with the inhibitors, washed, and then lysed using lysis buffer as previously described. The protein concentration of the lysate was measured, and the lysate was mixed with gel electrophoresis loading buffer, boiled for 5 minutes, separated by SDS-PAGE, and transferred to nitrocellulose membranes. […] To evaluate the effect of inhibitors on cell cycle progression, cells were treated with inhibitors at indicated dose or DMSO control and then harvested, fixed with 70% ethanol pretreated with RNase, and stained with propidium iodide (PI) (Sigma) as previously described for flow cytometry analysis. For the detection of apoptosis, cells were cultured for 24 h in medium with inhibitors at indicated dose or DMSO control and harvested for SDS-PAGE and Western blotting. The siRNA or drug treatment-induced apoptosis was detected by Western blot analysis of the cleavage of PARP and caspase-3.

Experiment [10] relates to MDA-MB-468 cells. Put plainly: Cell-cycle analysis by flow cytometry, MDA-MB-468. It is filed as cell-based, human. Conditions: MDA-MB-468, same conditions, data not shown. On the procedure: To evaluate the effect of inhibitors on cell cycle progression, cells were treated with inhibitors at indicated dose or DMSO control and then harvested, fixed with 70% ethanol pretreated with RNase, and stained with propidium iodide (PI) (Sigma) as previously described for flow cytometry analysis. For the detection of apoptosis, cells were cultured for 24 h in medium with inhibitors at indicated dose or DMSO control and harvested for SDS−PAGE and Western blotting. The siRNA or drug treatment-induced apoptosis was detected by Western blot analysis of the cleavage of PARP and caspase-3.
(In flow cytometry, cells or beads pass a laser one at a time.)

[11] abbreviates: Homo sapiens, MDA-MB-468, Ruxolitinib 30 μM.
The mark [12] stands for this setting: MDA-MB-468, increasing concentrations, 2 h.
Where [13] appears, read: Homo sapiens, MDA-MB-468, Alisertib 0.5 μM.

`N#CC[C@H](C1CCCC1)n1cc(-c2ncnc3[nH]ccc23)cn1` [Ruxolitinib]: the IC50 in the experiment on MDA-MB-468 cells [1] worked out at 26 µM; in the experiment with HT29 cells (HT-29, 48 h), 44.7 µM. Also, the inhibition at 35 µM with MDA-MB-468 cells [1] (MDA-MB-468, Ruxolitinib 35 μM) is 51.2%. For the same compound, the inhibition at 20 µM is 14.3% in the experiment on HT29 cells (HT-29, HT29, Ruxolitinib 20 μM, 48 h) and 44.2% in the experiment with HT-29 cells [3] (Homo sapiens, HT-29, Ruxolitinib 20 μM, read-out: inhibition of soft agar colonies). Further, the inhibition at 30 µM with MDA-MB-468 cells [2] (setting [11]) stood at 23.7%; in the experiment on MDA-MB-468 cells [4] (setting [11]), 48.6%. Besides, the soft agar colonies in the experiment on MDA-MB-468 cells [2] (MDA-MB-468, Ruxolitinib 30 μM) came to 100 colonies; with HT-29 cells [3] (HT-29, Ruxolitinib 20 μM) it was 72 colonies. Further, the invaded cells in the experiment with MDA-MB-468 cells [4] (MDA-MB-468, Ruxolitinib 30 μM) was 177 cells; with HT-29 cells [5] (HT-29, Ruxolitinib 40 μM) it was 305 cells. Further, the inhibition at 40 µM in the experiment on HT-29 cells [5] (Homo sapiens, HT-29, Ruxolitinib 40 μM) turned out to be 71.4%. Further, the “effect on auto-phosphorylation of Aurora A” value (“effect … of Aurora A” below) in [6] is recorded as “not that of Histone H3 or the auto-phosphorylation of Aurora A”. Besides, the “effect on P-Histone H3” value in [7] (MDA-MB-468, Ruxolitinib 30 μM) is recorded as “not P-Histone H3”; in the experiment on P-Histone H3 (HT-29, Ruxolitinib 20 μM), “not P-Histone H3”. The “effect on phosphorylation of Histone H3 (Ser-10)” value (“effect … (Ser-10)” below) in experiment [7] (setting [12]) was “not that of Histone H3”. The “effect on P-STAT3” value in experiment [8] is “inhibited P-STAT3”; with P-STAT3 (HT-29, Ruxolitinib 20 μM) it was “inhibited P-STAT3”. Further, the “effect on phosphorylation of STAT3 (Y705)” value in [8] is recorded as “able to inhibit the phosphorylation of STAT3”. The PARP cleavage entry in [9] (e.g. Ruxolitinib 0.4 μM) was “neither Alisertib nor Ruxolitinib induced PARP cleavage”.
With `COc1cc(Nc2ncc3c(n2)-c2ccc(Cl)cc2C(c2c(F)cccc2OC)=NC3)ccc1C(=O)O` [Alisertib], the inhibition at 0.05 µM came to 25.4% in the experiment on MDA-MB-468 cells [1] (MDA-MB-468, Alisertib 0.05 μM) and 5% in the experiment on HT29 cells (HT-29, 48 h, read-out: inhibition of proliferation). Moreover, the IC50 in the experiment with MDA-MB-468 cells [1] was determined as 0.07 µM; with HT29 cells (HT-29, 48 h) it was 2 µM. The values for the inhibition at 0.5 µM with MDA-MB-468 cells [2] (setting [13]) and in the experiment with MDA-MB-468 cells [4] (setting [13]) were 49% and 24.5%, respectively. Moreover, the soft agar colonies came out at 67 colonies with MDA-MB-468 cells [2] (MDA-MB-468, Alisertib 0.5 μM) and 56 colonies in the experiment on HT-29 cells [3] (HT-29, Alisertib 2 μM). The inhibition at 2 µM in the experiment with HT-29 cells [3] (Homo sapiens, HT-29, Alisertib 2 μM, read-out: inhibition of soft agar colonies) is 56.6%. Besides, the invaded cells in the experiment on MDA-MB-468 cells [4] (MDA-MB-468, Alisertib 0.5 μM) was 260 cells; in the experiment with HT-29 cells [5] (HT-29, Alisertib 4 μM), 384 cells. In the experiment on HT-29 cells [5] (Homo sapiens, HT-29, Alisertib 4 μM), this compound came in with an inhibition at 4 µM of 64%. Moreover, the “effect … of Aurora A” value in experiment [6] is reported as “highly effective at inhibiting”. Further, the “effect on P-Histone H3” value in experiment [7] (MDA-MB-468, Alisertib 0.5 μM) is recorded as “inhibited P-Histone H3”; with P-Histone H3 (HT-29, Alisertib 2 μM), “inhibited P-Histone H3”. Moreover, in experiment [7] (setting [12]), the “effect … (Ser-10)” value is on record as “highly effective at inhibiting”. The “effect on P-STAT3” value is on record as “not P-STAT3” in experiment [8] (MDA-MB-468, Alisertib 0.5 μM) and “not P-STAT3” in the experiment with P-STAT3 (HT-29, Alisertib 2 μM). Besides, the PARP cleavage result in experiment [9] (e.g. Alisertib 0.03 μM) is “neither Alisertib nor Ruxolitinib induced PARP cleavage”.
As for `Cc1cc(Nc2cc(N3CCN(C)CC3)nc(Sc3ccc(NC(=O)C4CC4)cc3)n2)[nH]n1` [VX-680, Tozasertib], the “effect … of Aurora A” value in experiment [6] is on record as “highly effective at inhibiting”. Besides, the “effect … (Ser-10)” value in experiment [7] is reported as “highly effective at inhibiting”. The G2/M accumulation result with MDA-MB-468 cells [10] is “induced a significant G2/M accumulation”.
